Here are results for 24 compounds from patent US20240140957A1, “BRIDGED COMPOUNDS AS KRAS G12D INHIBITOR AND DEGRADER AND THE USE THEREOF” (BeiGene Switzerland GmbH, priority 2021, published 2024).

In general, IC50 refers to the concentration at which inhibition is half-maximal.

The test has as its target GDP-loaded KRAS G12D (Homo sapiens, UniProt P01116, G12D). Nature of the test: KRAS G12D Probe Displacement Assay. Format: binding. The note with it: KRAS G12D 0.5 nM, biotinylated probe 2 4 nM; Table 6 letters; read-out: KRAS G12D Probe Displacement Assay IC50 (class).

Sequence of GDP-loaded KRAS G12D (P01116 1-188 isoform P01116-2 G12D): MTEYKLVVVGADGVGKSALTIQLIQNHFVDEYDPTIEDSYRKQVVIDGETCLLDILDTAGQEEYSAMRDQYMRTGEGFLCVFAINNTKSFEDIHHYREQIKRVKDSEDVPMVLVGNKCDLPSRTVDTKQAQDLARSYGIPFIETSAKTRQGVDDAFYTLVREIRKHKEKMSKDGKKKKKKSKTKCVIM

Turning to `Cc1cc(N)nc(-c2c(Cl)cc3c(N4CC5CCC(C4)N5)nc(OCC4(C)CCOCC4)nc3c2F)c1C(F)(F)F` [Example E202, 6-(4-(3,8-diazabicyclo[3.2.1]octan-3-yl)-6-chloro-8-fluoro-2-((4-methyltetrahydro-2H-pyran-4-yl)methoxy)quinazolin-7-yl)-4-methyl-5-(trifluoromethyl)pyridin-2-amine], the IC50 fell in the range of 50 to 100 nM.

Consider `Cc1cc(N)nc(-c2c(Cl)cc3c(N4CC5CCC(C4)N5)nc(OCC4(C)CCOC4)nc3c2F)c1C(F)(F)F` (stereo not drawn) [Example E203, 6-(4-(3,8-diazabicyclo[3.2.1]octan-3-yl)-6-chloro-8-fluoro-2-((3-methyltetrahydrofuran-3-yl)methoxy)quinazolin-7-yl)-4-methyl-5-(trifluoromethyl)pyridin-2-amine], for which the IC50 lay within 50 to 100 nM.

Regarding `COCC(C#N)(CO)COc1nc(N2CC3CCC(C2)N3)c2cc(Cl)c(-c3nc(N)cc(C)c3C(F)(F)F)c(F)c2n1` (stereo not drawn) [Example E204, 3-((7-(6-amino-4-methyl-3-(trifluoromethyl)pyridin-2-yl)-4-(3,8-diazabicyclo [3.2.1]octan-3-yl)-6-chloro-8-fluoroquinazolin-2-yl)oxy)-2-(hydroxymethyl)-2-(methoxymethyl)propanenitrile], the IC50 is less than 50 nM.

`Cc1cc(N)nc(-c2c(Cl)cc3c(N4CC5CCC(C4)N5)nc(OCC(C#N)(CO)CO)nc3c2F)c1C(F)(F)F` [Example E205, 3-((7-(6-amino-4-methyl-3-(trifluoromethyl)pyridin-2-yl)-4-(3,8-diazabicyclo [3.2.1]octan-3-yl)-6-chloro-8-fluoroquinazolin-2-yl)oxy)-2,2-bis(hydroxymethyl) propanenitrile]: the 50% inhibitory concentration (IC50) was less than 50 nM.

Consider `Cc1cc(N)nc(-c2c(Cl)cc3c(N4CC5CCC(C4)N5)nc(OCC4(C#N)CCOC4)nc3c2F)c1C(F)(F)F` (stereo not drawn) [Example E206, 3-(((7-(6-amino-4-methyl-3-(trifluoromethyl)pyridin-2-yl)-4-(3,8-diazabicyclo[3.2.1]octan-3-yl)-6-chloro-8-fluoroquinazolin-2-yl)oxy)methyl)tetrahydrofuran-3-carbonitrile], for which the IC50 is less than 50 nM.

Consider `Cc1cc(N)nc(-c2c(Cl)cc3c(N4CC5CCC(C4)N5)nc(OCC4(C)CCC(=O)N4)nc3c2F)c1C(F)(F)F` (stereo not drawn) [Example E207, 5-(((7-(6-amino-4-methyl-3-(trifluoromethyl)pyridin-2-yl)-4-(3,8-diazabicyclo[3.2.1]octan-3-yl)-6-chloro-8-fluoroquinazolin-2-yl)oxy)methyl)-5-methylpyrrolidin-2-one], for which the IC50 is less than 50 nM.

For the compound `Cc1cc(N)nc(-c2c(Cl)cc3c(N4CC5CCC(C4)N5)nc(OCC4(C)CNC(=O)C4)nc3c2F)c1C(F)(F)F` (stereo not drawn) [Example E208, 4-(((7-(6-amino-4-methyl-3-(trifluoromethyl)pyridin-2-yl)-4-(3,8-diazabicyclo[3.2.1]octan-3-yl)-6-chloro-8-fluoroquinazolin-2-yl)oxy)methyl)-4-methylpyrrolidin-2-one], the IC50 was less than 50 nM.

Regarding `Nc1nc2c(-c3c(C(F)(F)F)cc4c(N5CC6CCC(C5)N6)nc(OCC5COCC5O)nc4c3F)ccc(F)c2s1` (stereo not drawn) [Example E209, 4-(((7-(2-amino-7-fluorobenzo[d]thiazol-4-yl)-4-(3,8-diazabicyclo [3.2.1]octan-3-yl)-8-fluoro-6-(trifluoromethyl)quinazolin-2-yl)oxy)methyl)tetrahydrofuran-3-ol], the IC50 is less than 50 nM.

For the compound `Nc1nc2c(-c3c(C(F)(F)F)cc4c(N5CC6CCC(C5)N6)nc(OCC5C6COCC65)nc4c3F)ccc(F)c2s1` (stereo not drawn) [Example E210, 4-(2-((3-oxabicyclo[3.1.0]hexan-6-yl)methoxy)-4-(3,8-diazabicyclo[3.2.1]octan-3-yl)-8-fluoro-6-(trifluoromethyl)quinazolin-7-yl)-7-fluorobenzo[d]thiazol-2-amine], the IC50 is less than 50 nM.

Regarding `N#CC1(COc2nc(N3CC4CCC(C3)N4)c3cc(C(F)(F)F)c(-c4ccc(F)c5sc(N)nc45)c(F)c3n2)CCOC1` (stereo not drawn) [Example E211, 3-(((7-(2-amino-7-fluorobenzo[d]thiazol-4-yl)-4-(3,8-diazabicyclo [3.2.1]octan-3-yl)-8-fluoro-6-(trifluoromethyl)quinazolin-2-yl)oxy)methyl)tetrahydrofuran-3-carbonitrile], the IC50 was less than 50 nM.

For the compound `CC1(COc2nc(N3CC4CCC(C3)N4)c3cc(C(F)(F)F)c(-c4ccc(F)c5sc(N)nc45)c(F)c3n2)CCC(=O)N1` (stereo not drawn) [Example E212, 5-(((7-(2-amino-7-fluorobenzo[d]thiazol-4-yl)-4-(3,8-diazabicyclo[3.2.1]octan-3-yl)-8-fluoro-6-(trifluoromethyl)quinazolin-2-yl)oxy)methyl)-5-methylpyrrolidin-2-one], the IC50 was less than 50 nM.

On to `Nc1nc2c(-c3c(C(F)(F)F)cc4c(N5CC6CCC(C5)N6)nc(OCC5CCCCC5O)nc4c3F)ccc(F)c2s1` (stereo not drawn) [Example E213, 2-(((7-(2-amino-7-fluorobenzo[d]thiazol-4-yl)-4-(3,8-diazabicyclo[3.2.1]octan-3-yl)-8-fluoro-6-(trifluoromethyl)quinazolin-2-yl)oxy)methyl)cyclohexan-1-ol], for which the IC50 was less than 50 nM.

As for `N#CC1(COc2nc(N3CC4CCC(C3)N4)c3cc(C(F)(F)F)c(-c4ccc(F)c5sc(N)nc45)c(F)c3n2)CCC1` [Example E214, 1-(((7-(2-amino-7-fluorobenzo[d]thiazol-4-yl)-4-(3,8-diazabicyclo [3.2.1]octan-3-yl)-8-fluoro-6-(trifluoromethyl)quinazolin-2-yl)oxy)methyl)cyclobutane-1-carbonitrile], the 50% inhibitory concentration (IC50) is less than 50 nM.

As for `CC1(COc2nc(N3CC4CCC(C3)N4)c3cc(C(F)(F)F)c(-c4ccc(F)c5sc(N)nc45)c(F)c3n2)COCCO1` (stereo not drawn) [Example E215, 4-(4-(3,8-diazabicyclo[3.2.1]octan-3-yl)-8-fluoro-2-((2-methyl-1,4-dioxan-2-yl)methoxy)-6-(trifluoromethyl)quinazolin-7-yl)-7-fluorobenzo[d]thiazol-2-amine], the IC50 was less than 50 nM.

Consider `Nc1nc2c(-c3c(C(F)(F)F)cc4c(N5CC6CCC(C5)N6)nc(OCC5CCCOC5)nc4c3F)ccc(F)c2s1` (stereo not drawn) [Example E216, 4-(4-(3,8-diazabicyclo[3.2.1]octan-3-yl)-8-fluoro-2-((tetrahydro-2H-pyran-3-yl)methoxy)-6-(trifluoromethyl)quinazolin-7-yl)-7-fluorobenzo[d]thiazol-2-amine], for which the IC50 is less than 50 nM.

For the compound `Nc1nc2c(-c3c(C(F)(F)F)cc4c(N5CC6CCC(C5)N6)nc(OCC56COCC5C6)nc4c3F)ccc(F)c2s1` (stereo not drawn) [Example E217, 4-(2-((3-oxabicyclo[3.1.0]hexan-1-yl)methoxy)-4-(3,8-diazabicyclo[3.2.1]octan-3-yl)-8-fluoro-6-(trifluoromethyl)quinazolin-7-yl)-7-fluorobenzo[d]thiazol-2-amine], the IC50 was less than 50 nM.

`Nc1nc2c(-c3c(C(F)(F)F)cc4c(N5CC6CCC(C5)N6)nc(OCC5(F)CCOCC5)nc4c3F)ccc(F)c2s1` [Example E218, 4-(4-(3,8-diazabicyclo[3.2.1]octan-3-yl)-8-fluoro-2-((4-fluorotetra hydro-2H-pyran-4-yl)methoxy)-6-(trifluoromethyl)quinazolin-7-yl)-7-fluorobenzo[d]thiazol-2-amine]: the IC50 was less than 50 nM.

As for `Nc1nc2c(-c3c(C(F)(F)F)cc4c(N5CC6CCC(C5)N6)nc(OC[C@@H]5COCCO5)nc4c3F)ccc(F)c2s1` [Example E219, 4-(2-(((S)-1,4-dioxan-2-yl)methoxy)-4-(3,8-diazabicyclo[3.2.1]octan-3-yl)-8-fluoro-6-(trifluoromethyl)quinazolin-7-yl)-7-fluorobenzo[d]thiazol-2-amine], the 50% inhibitory concentration (IC50) was less than 50 nM.

As to `Nc1nc2c(-c3c(C(F)(F)F)cc4c(N5CC6CCC(C5)N6)nc(OCC5CCCC5O)nc4c3F)ccc(F)c2s1` (stereo not drawn) [Example E220], the IC50 was in the range of 50 to 100 nM.

For `Nc1nc2c(-c3c(C(F)(F)F)cc4c(N5CC6CCC(C5)N6)nc(OCC5(O)CCOCC5)nc4c3F)ccc(F)c2s1` [Example E221, 4-(((7-(2-amino-7-fluorobenzo[d]thiazol-4-yl)-4-(3,8-diazabicyclo [3.2.1]octan-3-yl)-8-fluoro-6-(trifluoromethyl)quinazolin-2-yl)oxy)methyl)tetrahydro-2H-pyran-4-ol], the half-inhibitory concentration (IC50) was less than 50 nM.

In the case of `Nc1nc2c(-c3c(C(F)(F)F)cc4c(N5CC6CCC(C5)N6)nc(OCC56CC(O)(C5)C6)nc4c3F)ccc(F)c2s1` [Example E222, 3-(((7-(2-amino-7-fluorobenzo[d]thiazol-4-yl)-4-(3,8-diazabicyclo [3.2.1]octan-3-yl)-8-fluoro-6-(trifluoromethyl)quinazolin-2-yl)oxy)methyl)bicyclo[1.1.1]pentan-1-ol], the IC50 was less than 50 nM.

For the compound `CC(=O)N1CCCC(COc2nc(N3CC4CCC(C3)N4)c3cc(C(F)(F)F)c(-c4ccc(F)c5sc(N)nc45)c(F)c3n2)C1` (stereo not drawn) [Example E223, 1-(3-(((7-(2-amino-7-fluorobenzo[d]thiazol-4-yl)-4-(3,8-diazabicyclo[3.2.1]octan-3-yl)-8-fluoro-6-(trifluoromethyl)quinazolin-2-yl)oxy)methyl)piperidin-1-yl)ethan-1-one], the IC50 was less than 50 nM.

Consider `Cc1cc(N)nc(-c2c(Cl)cc3c(N4CC5CCC(C4)N5)nc(OCC45COC(C4)C5)nc3c2F)c1C(F)(F)F` [Example E224, 6-(2-((2-oxabicyclo[2.1.1]hexan-4-yl)methoxy)-4-(3,8-diazabicyclo[3.2.1]octan-3-yl)-6-chloro-8-fluoroquinazolin-7-yl)-4-methyl-5-(trifluoromethyl)pyridin-2-amine], for which the IC50 is less than 50 nM.

Regarding `Cc1cc(N)nc(-c2c(Cl)cc3c(N4CC5CCC(C4)N5)nc(OCC4(C)CCC(=O)NC4)nc3c2F)c1C(F)(F)F` (stereo not drawn) [Example E225, 5-(((7-(6-amino-4-methyl-3-(trifluoromethyl)pyridin-2-yl)-4-(3,8-diazabicyclo[3.2.1]octan-3-yl)-6-chloro-8-fluoroquinazolin-2-yl)oxy)methyl)-5-methylpiperidin-2-one], the IC50 is less than 50 nM.
